The assay relates to hair follicles. The assay is described as follows: Hair follicle growth (elongation) in organ culture of scalp hair follicles, image analysis. It counts as cell-based, human. As to conditions: Table 7, day 10 of culture, pooled from two donors. The method, then: For each experiment and the control 9-12 follicles were used, plated at the density of 3 hair follicles/well in 24 well plates. Hair follicles were taken from the head of the scalp and transferred for cultivation in sterile 24 well plates using a modified Williams' Medium E. Cultivation took place for nine days, following 18 h of pre-incubation performed in order to select hair follicles suitable to be maintained in culture. Only those follicles showing a good vital stage and a growth of not less than 0.2 mm were used.
The growth performances observed in the treated hair follicles were compared to a control group, which was cultured in the same culture medium but free from extract supplement.
[…] In order to obtain these supplemented media, the required quantity of dir-MeOH extract was submitted to solvent evaporation and then redissolved again in DMSO. The final concentration of this DMSO-solved extract has been adjusted in order to supplement the experimental media with the desired extract quantity, obtaining at same time a final concentration in DMSO equal to 0.05%. The same concentration of DMSO has also been used in the medium for the culture of the control group.
The experiments were terminated after 10 days of cultivation (9 days of treatment). The growth of the hair follicles was studied by microphotography and subsequently determined by image analysis. All the hair follicles were photographed every two days.
1, were the hair follicle elongation is expressed as percentage ratio between the experimental groups and the untreated control: […]

We go through one molecule from patent publication US12128257B2, “Extracts of Isochrysis sp” (SYMRISE AG, priority 2008, dated 2024).

Regarding `CC/C=C\C/C=C\C/C=C\C/C=C\C/C=C\C/C=C\CCC(=O)O` [DHA, docosahexaenoic acid], the “Growth (%): Elongation in [%] of the control performance” value was found to be 99.5% (0.003 μg/ml), 93.5% (0.03 μg/ml) and 89.3% (0.3 μg/ml).
